# According to article PMC9239272 (mBio, 2022):
# How the values were obtained:
# SARS2 M^pro [1] = assay type: cell-based, SARS-CoV-2
# 229E M^pro = assay type: cell-based, HCoV-229E
# NL63 M^pro [2] = conditions: in vitro studies; cited from earlier work
# SARS2 M^pro [3] = assay type: cell-based, SARS-CoV-2; remark: listed apart in the source
# NL63 M^pro [4] = assay type: cell-based, HCoV-NL63; conditions: 2-fold dilution series beginning at 100 μM
compound,measurement,setting,value
CCCCCCNC(=O)n1cc(F)c(=O)[nH]c1=O [Carmofur],dose responsiveness of WT Luc reporter,SARS2 M^pro [1],tested negative at all concentrations
CCOc1ccc2nc3cc(N)ccc3c(N)c2c1 [Ethacridine],dose responsiveness of WT Luc reporter,SARS2 M^pro [1],tested negative at all concentrations
CC(C)(C)NC(=O)N[C@H](C(=O)N1C[C@H]2[C@@H]([C@H]1C(=O)NC(CC1CCC1)C(=O)C(N)=O)C2(C)C)C(C)(C)C (some centres unmarked) [boceprevir],increase in signal of luciferase construct compared with eGFP construct,SARS2 M^pro [1],~ 3 fold
same,maximal signal increase over background,SARS2 M^pro [1],16 fold
same,maximal signal increase over background,229E M^pro,4.3 fold
same,IC50,NL63 M^pro [2],~100 µM
same,restoration of eGFP fluorescence of WT reporter,SARS2 M^pro [3],comparatively modest increase in signal
same,maximal signal increase over background,NL63 M^pro [4],1.9 fold
O=c1c2ccccc2[se]n1-c1ccccc1 [ebselen],dose responsiveness of WT Luc reporter,SARS2 M^pro [1],tested negative at all concentrations
Cc1ccc(NC(=O)c2ccc(CN3CCN(C)CC3)cc2)cc1Nc1nc(-c2cccnc2)cs1 [masitinib],dose responsiveness of WT Luc reporter,SARS2 M^pro [1],tested negative at all concentrations
CC(C)(C)[C@H](NC(=O)C(F)(F)F)C(=O)N1C[C@H]2[C@@H]([C@H]1C(=O)N[C@H](C#N)C[C@@H]1CCNC1=O)C2(C)C [nirmatrelvir],dose responsiveness of WT Luc reporter,SARS2 M^pro [1],highest reporter signals at all tested concentrations
GC376,dose responsiveness of WT Luc reporter,SARS2 M^pro [1],causes increased reporter expression
same,increase in signal of luciferase construct compared with eGFP construct,SARS2 M^pro [1],~ 3 fold
same,maximal signal increase over background,SARS2 M^pro [1],100 fold
same,maximal signal increase over background,229E M^pro,72 fold
same,cell viability,"293T cells; 48 h incubation, wide range of concentrations",cell viabilities remain consistent
same,restoration of eGFP fluorescence of WT reporter,SARS2 M^pro [3],strong restoration of expression and eGFP fluorescence
same,maximal signal increase over background,NL63 M^pro [4],24 fold
GRL-0496,dose responsiveness of WT Luc reporter,SARS2 M^pro [1],clear positive dose response
same,cytotoxicity,293T cells,no cytotoxicity
